In patent US7446102B2, “Antibacterial amide macrocycles IV” (priority 2004, dated 2008):
Where a name gives a salt, the structure may show the parent alone. Read-outs that look alike come from different tables or passages of the source.

Tests used:
Format in all cases: cell-based
S. aureus T17 = assay: Determination of the minimum inhibitory concentration (MIC), biphenomycin-resistant S. aureus T17; settings: Staphylococcus aureus
Procedure: (§1) Determination of the Minimum Inhibitory Concentration (MIC)
(§2) The minimum inhibitory concentration (MIC) is the minimum concentration of an antibiotic with which the growth of a test microbe is inhibited over 18-24 h. The inhibitor concentration can in these cases be determined by standard microbiological methods (see, for example, The National Committee for Clinical Laboratory Standards. Methods for dilution antimicrobial susceptibility tests for bacteria that grow aerobically; approved standard-fifth edition. NCCLS document M7-A5 [ISBN 1-56238-394-9]. NCCLS, 940 West Valley Road, Suite 1400, Wayne, Pa. 19087-1898 USA, 2000). The MIC of the compounds of the invention is determined in the liquid dilution test on the 96-well microtitre plate scale. The bacterial microbes are cultivated in a minimal medium (18.5 mM Na2HPO4, 5.7 mM KH2PO4, 9.3 mM NH4Cl, 2.8 mM MgSO4, 17.1 mM NaCl, 0.033 μg/ml thiamine hydrochloride, 1.2 μg/ml nicotinic acid, 0.003 μg/ml biotin, 1% glucose, 25 μg/ml of each proteinogenic amino acid with the exception of phenylalanine; [H.-P. Kroll; unpublished]) with the addition of 0.4% BH broth (test medium). In the case of Enterococcus facium L4001, heat-inactivated fetal calf serum (FCS; GibcoBRL, Germany) is added to the test medium in a final concentration of 10%. Overnight cultures of the test microbes are diluted to an OD578 of 0.001 (to 0.01 in the case of enterococci) in fresh test medium, and incubated 1:1 with dilutions of the test substances (1:2 dilution steps) in test medium (200 μl final volume). The cultures are incubated at 37° C. for 18-24 hours; enterococci in the presence of 5% CO2.
(§3) The lowest substance concentration in each case at which no visible bacterial growth occurred any more is defined as the MIC.
(§4) Alternative Method for Determining the Minimum Inhibitory Concentration (MIC)
(§5) The minimum inhibitory concentration (MIC) is the minimum concentration of an antibiotic with which the growth of a test microbe is inhibited over 18-24 h. The inhibitor concentration can in these cases be determined by standard microbiological methods with modified medium in an agar dilution test (see, for example, The National Committee for Clinical Laboratory Standards. Methods for dilution antimicrobial susceptibility tests for bacteria that grow aerobically; approved standard-fifth edition. NCCLS document M7-A5 [ISBN 1-56238-394-9]. NCCLS, 940 West Valley Road, Suite 1400, Wayne, Pa. 19087-1898 USA, 2000). The bacterial microbes are cultivated on 1.5% agar plates which contain 20% defibrinated horse blood. The test microbes, which are incubated overnight on Columbia blood agar plates (Becton-Dickinson), are diluted in PBS, adjusted to a microbe count of about […] and placed dropwise (1-3 μl) on test plates. The test substances comprise different dilutions of the test substances (1:2 dilution steps). The cultures are incubated at 37° C. in the presence of 5% CO2 for 18-24 hours.
(§6) The lowest substance concentration in each case at which no visible bacterial growth occurred any more is defined as the MIC and is reported in μg/ml.
The S. aureus strain T17 is isolated in vivo. CFW1 mice are infected intraperitoneally with 4×10^7 S. aureus 133 cells per mouse. 0.5 h after the infection, the animals are treated intravenously with 50 mg/kg biphenomycin B. The kidneys are removed from the surviving animals on day 3 after the infection. After homogenization of the organs, the homogenates are plated out as described for RN4220Bi^R on antibiotics-free and antibiotics-containing agar plates and incubated at 37° C. overnight. […] About 20 of these colonies are tested for the biphenomycin B MIC, and a colony with an MIC of >50 μM is selected for further cultivation, and the strain is referred to as T17.

E. faecium L4001 = assay: Determination of the minimum inhibitory concentration (MIC), E. faecium L4001; settings: Enterococcus faecium, L4001, read-out: MIC E. faecium L4001
Procedure: as §1, §2, §3, §4, §5, §6

S. aureus 133 = assay: Determination of the minimum inhibitory concentration (MIC), S. aureus 133; settings: Staphylococcus aureus, 133, read-out: MIC S. aureus 133
Procedure: as §1, §2, §3, §4, §5, §6

## NC[C@H](O)C[C@@H]1NC(=O)[C@@H](N)Cc2cc(ccc2O)-c2ccc(O)c(c2)C[C@@H](C(=O)O)NC1=O [Example 20A, 14(S)-Amino-11(S)-(3-amino-2(R)-hydroxypropyl)-5,17-dihydroxy-10,13-dioxo-9,12-diazatricyclo[14.3.1.1^2,6]henicosa-1(19),2,4,6(21),16(20),17-hexaene-8(S)-carboxylic acid dihydrochloride, reference compound]
S. aureus T17; biphenomycin-resistant strain, no visible bacterial growth, 18-24 h, 37° C., read-out: MIC S. aureus T17
  MIC: > 32 µg/mL
S. aureus T17; colony isolated from kidney of mice treated with 50 mg/kg biphenomycin B, read-out: MIC, selected colony (strain T17)
  MIC: > 50 µM
E. faecium L4001
  MIC: 0.5 µg/mL
S. aureus 133
  MIC: < 0.03 µg/mL
